# Columns and labels:
# 3T3-L1 cells = experiment: Evaluation of Insulin Sensitivity Using 3T3-L1 Cells (triglyceride accumulation); assay type: cell-based; conditions: Mus musculus, 96 h, insulin 10 ng/ml, 4 days, triglyceride increase by 10 μM pioglitazone taken as 100%, read-out: EC50 (dose necessary for a 50% increase of triglyceride)
# Method: Evaluation of Insulin Sensitivity Using 3T3-L1 Cells 3T3-L1 cells (purchased from American Type Culture Collection) which were in the n=x+3 passage were purchased and subcultured until the passage number reached n=x+8. The cells were frozen in liquid nitrogen, thawed and suboultured till n=x+11. 0.05% Trypsin-0.53 mM ethylenediaminetetraacetic acid (EDTA) was added and the cells were harvested. The cells were suspended in Dulbecco's modified Eagle's medium (DMEM) [5% fetal bovine serum (FBS), supplemented with 5.6 mM glucose], plated on a 24 well plate at a concentration of 0.5×10^5 cells/well and cultured. Two days later, the medium was changed to DMEM [5% FBS, supplemented with 5.6 mM glucose] containing 1 μM dexamethasone and 0.5 mM isobutylmethylxanthine and the incubation was continued for 2 more days. The test compounds were dissolved in dimethyl sulfoxide and diluted 1000-fold with DMEM [2% FBS, supplemented with 5.6 mM glucose] containing insulin (10 ng/ml) to make the final concentration thereof to 0 nM-10 μM, and added to the cells, which cells were incubated for 4 days. After incubation, isopropanol was added by 200 μl per well and the cells were ruptured by a probe type ultrasonicator. The triglyceride amount was determined using a triglyceride determination kit. The activity of the compounds was determined by calculating relative triglyceride increase achieved by each compound when that achieved by 10 μM pioglitazone was taken as 100%, and expressed by the dose (EC50) necessary for a 50% increase of triglyceride. The test compounds were those of Examples 1-3, 5, 8, 15, 16, 18, 19, 22 and 28 and Reference Example 1. As a control compound, used was a known compound of the following formula. The above test concerns whether or not the insulin sensitivity of 3T3-L1 cells is promoted. […] When insulin acts on 3T3-L1 cells, it not only takes up glucose but permits accumulation of triglyceride in the cells. Thus, after allowing insulin to act, the cells are ruptured and triglyceride is quantitatively determined, whereby the degree of the action of insulin and the degree of sensitivity can be known.
# diabetic mice (KK-Ay) = experiment: Evaluation of Serum Glucose of Diabetic Mice; assay type: in vivo; conditions: Mus musculus, 96 h; KK-Ay male mice, oral in diet, 4 days; read-out: Serum glucose ED50 (dose corresponding to a -50% change)
# Method: Evaluation of Serum Glucose of Diabetic Mice
# Genetically obese, hyperglycemic, hyperinsulinemic and hyperlipidemic diabetic mice (KK-Ay, male, Clea Japan, Inc., 8 weeks of age) were used for the pharmacological tests. Before the initiation of the drug administration, about 100 μl of blood was taken from orbital venosus under light ether anesthesia, and serum glucose was measured as described below. Based on the obtained value and body weight, the mice were grouped (6 per group) in such a manner that there existed no differences between the groups.
# The test compounds were those of Examples 1 and 5 and Reference Example 1, as well as the above-mentioned control compound.
# The test compounds were respectively dissolved in ethanol (three levels of concentrations per compound) and added to a powdered diet (CRF-1, ORIENTAL YEAST CO., LTD.). The diet was homogeneously mixed and ethanol was evaporated. The diet was given to the above-mentioned mice for 4 days, and the test compounds were orally administered (3 doses each). To a control group, CRF-1 powdered diet was given.
# At day 4, blood samples (ca. 200 μl) were taken again in the same manner as above, and serum was separated (12,000 rpm, 5 min.) and used for the determination. Serum glucose was measured by hexokinase method (LYQUITECH glucose-HK-test; Boehlinger Marnheim Yamanouchi). Used for the determination was an automatic analyzer COBAS FARA II (Roche).
# Changes in percentage of serum glucose of each group were calculated as follows from the values obtained at day 4 from the control group and the group administered with test compounds. [formula]
# The changes in percentage of serum glucose was plotted on the axis of ordinates and the dose (mg/kg/day) of the test compound was plotted on the axis of abscissa (log), and the dose corresponding to a -50% change was read and taken as the ED50 of each test compound.
Structure (SMILES),EC50 (3T3-L1 cells) [nM],ED50 (diabetic mice (KK-Ay)) [mg/kg]
CSC(=O)NC(=O)CCc1ccc(OCCc2nc(-c3ccccc3)oc2C)cc1 [Example 22],90,
"Cc1oc(-c2cc3ccccc3s2)nc1CCOc1ccc(CCC(=O)NC(N)=O)cc1 [Example 15, N-[3-[4-[2-(2-(Benzothiophen-2-yl)-5-methyl-4-oxazolyl)ethoxy]phenyl]propionyl]urea]",90,
"Cc1oc(-c2ccccc2)nc1CCOc1ccc(CC(C(=O)O)C(=O)O)cc1 [Example 5, 2-[4-[2-(5-Methyl-2-phenyl-4-oxazolyl)ethoxy]benzyl]malonic acid]",7.2,2.7
"COC(=O)CCc1ccc(OCCc2nc(-c3ccccc3)oc2C)cc1 [Example 16, Methyl 3-[4-[2-(5-methyl-2-phenyl-4-oxazolyl)ethoxy]phenyl]propionate]",53,
"Cc1oc(-c2ccccc2)nc1CCOc1ccc(CCC(N)=O)cc1 [Example 18, 3-[4-[2-(5-Methyl-2-phenyl-4-oxazolyl)ethoxy]phenyl]propionamide]",65,
"Cc1oc(-c2ccccc2)nc1CCOc1ccc(CC(C)(C(N)=O)C(=O)O)cc1 (centres unmarked) [Example 28, 2-Carbamoyl-2-methyl-3-[4-[2-(5-methyl-2-phenyl-4-oxazolyl)ethoxy]phenyl]propionic acid]",73,
"COC(=O)C(Cc1ccc(OCCc2nc(-c3ccccc3)oc2C)cc1)C(=O)OC [Reference Example 1, Dimethyl 2-[4-[2-(5-methyl-2-phenyl-4-oxazolyl)ethoxy]benzyl]malonate]",0.38,0.17
"Cc1oc(-c2ccccc2)nc1CCOc1ccc(CC(C(N)=O)C(=O)O)cc1 (centres unmarked) [Example 3, 2-Carbamoyl-3-[4-[2-(5-methyl-2-phenyl-4-oxazolyl)ethoxy]phenyl]propionic acid]",150,
"COC(=O)C(Cc1ccc(OCCc2nc(-c3ccccc3)oc2C)cc1)C(N)=O (centres unmarked) [Example 2, Methyl 2-carbamoyl-3-[4-[2-(5-methyl-2-phenyl-4-oxazolyl)ethoxy]phenyl]propionate]",90,
"CCc1ccc(CCOc2ccc(CC3SC(=O)NC3=O)cc2)nc1 (centres unmarked) [Control compound, reference compound]",180,10.6
"COC(=O)NC(=O)C(Cc1ccc(OCCc2nc(-c3ccccc3)oc2C)cc1)C(=O)OC (centres unmarked) [Example 8, Methyl 2-methoxycarbonylcarbamoyl-3-[4-[2-(5-methyl-2-phenyl-4-oxazolyl)ethoxy]phenyl]propionate]",7,
"COC(=O)NC(=O)CCc1ccc(OCCc2nc(-c3ccccc3)oc2C)cc1 [Example 19, Methyl N-[3-[4-[2-(5-methyl-2-phenyl-4-oxazolyl)ethoxy]phenyl]propionyl]carbamide]",90,
"COC(=O)C(Cc1ccc(OCCc2nc(-c3ccccc3)oc2C)cc1)C(=O)O (centres unmarked) [Example 1, 2-Methoxycarbonyl-3-[4-[2-(5-methyl-2-phenyl-4-oxazolyl)ethoxy]phenyl]propionic acid]",0.45,0.12

# Source: patent publication US6204277A, “Propionic acid derivatives and applications thereof” (Japan Tobacco Inc., priority 1996, dated 2001)
